Molecular target: T1, EGFR (ErbB1) L861Q (Homo sapiens, UniProt P00533, L861Q)
T1 construct: purchased Thermo Fisher Scientific (Life Technologies) SelectScreen
Experiment: SelectScreen Z'LYTE
Format: biochemical
Outline: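 SelectScreen broad panel; activity (Z'LYTE, Adapta) plus binding formats. ATP: Km app for CSF1R Z'LYTE; 10 for CAMK1 Adapta. Readout = % per kinase.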

T1 sequence (P00533 25-1210 L861Q): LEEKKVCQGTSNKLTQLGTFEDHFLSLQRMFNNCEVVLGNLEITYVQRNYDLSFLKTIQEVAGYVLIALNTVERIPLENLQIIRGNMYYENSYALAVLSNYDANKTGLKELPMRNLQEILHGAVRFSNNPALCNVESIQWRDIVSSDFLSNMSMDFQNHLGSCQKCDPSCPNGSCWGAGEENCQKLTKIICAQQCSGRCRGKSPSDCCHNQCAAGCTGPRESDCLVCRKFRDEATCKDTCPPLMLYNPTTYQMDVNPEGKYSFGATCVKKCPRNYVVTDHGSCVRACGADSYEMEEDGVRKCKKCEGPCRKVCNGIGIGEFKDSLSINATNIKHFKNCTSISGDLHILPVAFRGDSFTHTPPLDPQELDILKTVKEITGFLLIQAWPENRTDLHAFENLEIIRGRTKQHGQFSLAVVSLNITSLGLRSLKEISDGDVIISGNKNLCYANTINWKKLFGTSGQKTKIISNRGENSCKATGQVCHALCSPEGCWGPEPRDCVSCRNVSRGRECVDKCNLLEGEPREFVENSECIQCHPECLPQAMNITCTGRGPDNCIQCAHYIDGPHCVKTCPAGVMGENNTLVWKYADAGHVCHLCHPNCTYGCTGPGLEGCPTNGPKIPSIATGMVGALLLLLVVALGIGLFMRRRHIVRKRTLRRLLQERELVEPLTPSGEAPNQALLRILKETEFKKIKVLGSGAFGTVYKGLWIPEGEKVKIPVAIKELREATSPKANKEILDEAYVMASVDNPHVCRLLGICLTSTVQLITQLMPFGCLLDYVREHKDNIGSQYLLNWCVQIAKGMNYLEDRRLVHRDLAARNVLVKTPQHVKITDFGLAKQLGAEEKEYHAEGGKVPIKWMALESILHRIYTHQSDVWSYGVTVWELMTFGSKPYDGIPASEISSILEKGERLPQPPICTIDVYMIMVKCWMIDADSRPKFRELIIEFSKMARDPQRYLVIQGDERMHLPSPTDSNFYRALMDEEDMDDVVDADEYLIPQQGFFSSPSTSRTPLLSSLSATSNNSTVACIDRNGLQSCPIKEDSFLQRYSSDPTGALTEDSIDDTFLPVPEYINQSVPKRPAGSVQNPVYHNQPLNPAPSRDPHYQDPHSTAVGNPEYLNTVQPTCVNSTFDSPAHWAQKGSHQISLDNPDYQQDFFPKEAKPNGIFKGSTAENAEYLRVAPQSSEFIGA

`CN(C(=O)CN1CCOCC1)c1ccc2sc3c(-c4cccc5c(=O)cc(N6CC7CCC(C6)O7)oc45)cccc3c2c1` [NU5455] was tested, and the inhibition at 1 µM was 2.2%.

Reference: PMC6934184, “Selective DNA-PKcs inhibition extends the therapeutic index of localized radiotherapy and chemotherapy” (The Journal of Clinical Investigation, 2019)
